Test results from publication PMC10039885, “Unnatural activities and mechanistic insights of cytochrome P450 PikC gained from site-specific mutagenesis by non-canonical amino acids” (Nature Communications, 2023).

Biological target: T1, PikC (PikCWT; cytochrome P450 CYP107L1) (Streptomyces venezuelae, UniProt O87605)
T1 construct: pET28a-pikC, expressed in E. coli BL21(DE3), Ni-NTA purified; heme protein
T1 sequence (O87605 1-416): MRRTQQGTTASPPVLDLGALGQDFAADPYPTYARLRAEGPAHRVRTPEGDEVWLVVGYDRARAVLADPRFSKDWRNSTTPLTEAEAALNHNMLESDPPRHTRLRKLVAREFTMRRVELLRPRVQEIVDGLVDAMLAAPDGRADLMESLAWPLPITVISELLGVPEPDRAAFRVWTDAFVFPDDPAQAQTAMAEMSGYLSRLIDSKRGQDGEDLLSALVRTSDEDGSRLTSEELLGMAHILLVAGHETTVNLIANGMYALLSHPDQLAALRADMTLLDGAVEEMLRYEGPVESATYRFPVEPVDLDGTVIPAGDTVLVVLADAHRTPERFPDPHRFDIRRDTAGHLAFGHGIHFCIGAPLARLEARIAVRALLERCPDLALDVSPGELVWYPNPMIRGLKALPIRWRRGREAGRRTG
Assay: UV-vis difference spectral titration ([…]-420 nm)
Assay type: binding

Row | SMILES | Kd
1 | CC[C@H]1OC(=O)[C@H](C)[C@@H](O[C@@H]2O[C@H](C)C[C@H](N(C)C)[C@H]2O)[C@@H](C)C[C@@H](C)C(=O)/C=C/[C@H]1C [compound 4, YC-17] | 178 µM
2 | CC[C@H]1OC(=O)[C@H](C)C(=O)[C@H](C)[C@@H](O[C@@H]2O[C@H](C)C[C@H](N(C)C)[C@H]2O)[C@@H](C)C[C@@H](C)C(=O)/C=C/[C@H]1C [compound 5, narbomycin] | 374 µM
